What was measured:
[1] = target: T1, human PPAR γ (Homo sapiens, UniProt P37231); assay: In vitro PPAR gamma transactivation assay (GAL4-DBD/PPAR-LBD, luciferase reporter, HEK293); assay type: cell-based; details: for In vitro activation PPAR γ % max: fold activation relative to maximum activation obtained with rosiglitazone (approx. […] fold corresponded to 100%); for EC50: transfected HEK293 cells, 24 h compound, five concentrations 0.01 to 30 μM, at least three experiments, means, read-out: In vitro activation PPAR γ EC50
T1 construct: PPARγ: aa 165—C-terminus); expressed in transfected cells; host or cells: HEK293
T1 sequence (P37231 238-503 limits assumed): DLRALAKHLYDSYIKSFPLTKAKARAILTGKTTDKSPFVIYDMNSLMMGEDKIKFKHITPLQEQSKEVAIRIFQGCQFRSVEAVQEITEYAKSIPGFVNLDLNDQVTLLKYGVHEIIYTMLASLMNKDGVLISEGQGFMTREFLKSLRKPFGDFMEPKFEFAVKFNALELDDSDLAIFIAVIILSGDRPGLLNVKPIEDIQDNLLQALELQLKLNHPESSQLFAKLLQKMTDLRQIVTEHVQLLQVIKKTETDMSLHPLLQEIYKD
Excerpt: (§1) In Vitro PPAR Alpha and PPAR Gamma Activation Activity.
(§2) The PPAR gene transcription activation assays were based on transient transfection into human HEK293 cells of two plasmids encoding a chimeric test protein and a reporter protein respectively. The chimeric test protein was a fusion of the DNA binding domain (DBD) from the yeast GAL4 transcription factor to the ligand binding domain (LBD) of the human PPAR proteins. The PPAR LBD harbored in addition to the ligand binding pocket also the native activation domain (activating function 2=AF2) allowing the fusion protein to function as a PPAR ligand dependent transcription factor. The GAL4 DBD will force the fusion protein to bind only to Gal4 enhancers (of which none existed in HEK293 cells). The reporter plasmid contained a Gal4 enhancer driving the expression of the firefly luciferase protein. After transfection, HEK293 cells expressed the GAL4-DBD-PPAR-LBD fusion protein. The fusion protein will in turn bind to the Gal4 enhancer controlling the luciferase expression, and do nothing in the absence of ligand. Upon addition to the cells of a PPAR ligand, luciferase protein will be produced in amounts corresponding to the activation of the PPAR protein. The amount of luciferase protein is measured by light emission after addition of the appropriate substrate.
(§3) Cell culture and transfection: HEK293 cells were grown in DMEM+10% FCS. Cells were seeded in 96-well plates the day before transfection to give a confluency of 50-80% at transfection. A total of […] DNA containing 0.64 μg pM1α/γLBD, 0.1 μg pCMVβGal, 0.08 μg pGL2Gal4DBD and 0.02 μg p[…] was transfected per well using FuGene transfection reagent according to the manufacturers instructions (Roche). Cells were allowed to express protein for 48 h followed by addition of compound.
(§4) Plasmids: Human PPAR α and γ was obtained by PCR amplification using cDNA synthesized by reverse transcription of mRNA from liver and adipose tissue respectively. Amplified cDNAs were cloned into pCR2.1 and sequenced. The ligand binding domain (LBD) of each PPAR isoform was generated by PCR (PPARα: aa 167—C-terminus; PPARγ: aa 165—C-terminus) and fused to the DNA binding domain (DBD) of the yeast transcription factor GAL4 by subcloning fragments in frame into the vector pM1 generating the plasmids pM1αLBD and pM1γLBD. Ensuing fusions were verified by sequencing.
(§5) Luciferase assay: Medium including test compound was aspirated and 100 μl PBS incl. 1 mM Mg++ and Ca++ was added to each well. The luciferase assay was performed using the Lu-cLite kit according to the manufacturers instructions (Packard Instruments). Light emission was quantified by counting SPC mode on a Packard Instruments top-counter. To measure β-galactosidase activity 25 μl supernatant from each transfection lysate was transferred to a new microplate. β-galactosidase assays were performed in the microwell plates using a kit from Promega and read in a microplate reader. The β-galactosidase data were used to normalize (transfection efficiency, cell growth etc.) the luciferase data.
(§6) Compounds: All compounds were dissolved in DMSO and diluted 1:1000 upon addition to the cells. Compounds were tested in quadruple in five concentrations ranging form 0.01 to 30 μM. Cells were treated with compound for 24 h followed by luciferase assay. Each compound was tested in three separate experiments. EC50 values were calculated via non-linear regression using GraphPad PRISM 3.02 (GraphPad Software, San Diego, Calif.). The results were expressed as means.

[2] = target: T2, human PPAR α (Homo sapiens, UniProt Q07869); assay: In vitro PPAR alpha transactivation assay (GAL4-DBD/PPAR-LBD, luciferase reporter, HEK293); assay type: cell-based; details: for In vitro activation PPAR α % max: fold activation relative to maximum activation obtained with Wy14643 (approx. 20 fold corresponded to 100%); for EC50: transfected HEK293 cells, 24 h compound, five concentrations 0.01 to 30 μM, at least three experiments, means, read-out: In vitro activation PPAR α EC50
T2 construct: expressed in transfected cells; host or cells: HEK293
T2 sequence (Q07869 167-468 limits assumed): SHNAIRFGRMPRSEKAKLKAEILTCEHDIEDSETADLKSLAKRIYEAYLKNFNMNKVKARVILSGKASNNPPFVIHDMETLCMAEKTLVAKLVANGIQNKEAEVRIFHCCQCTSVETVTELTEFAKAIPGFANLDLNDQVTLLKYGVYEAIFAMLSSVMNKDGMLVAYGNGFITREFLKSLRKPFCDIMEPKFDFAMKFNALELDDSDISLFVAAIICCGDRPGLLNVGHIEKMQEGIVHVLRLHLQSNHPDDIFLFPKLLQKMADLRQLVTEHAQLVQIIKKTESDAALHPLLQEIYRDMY
Excerpt: as §1, §2, §3
as §4, with “sequencing. The reporter was constructed by inserting an oligonucleotide encoding five repeats of the GAL4 recognition sequence (5×[…](AG)) into the vector pGL2 promotor (Promega) generating the plasmid pGL2(GAL4)5. pCMVβGal was purchased from Clontech and p[…] was purchased from Promega.” for “sequencing.”
as §5, §6

| SMILES | melting point | In vitro activation PPAR γ % max [1] | EC50 [1] | In vitro activation PPAR α % max [2] | EC50 [2] |
| --- | --- | --- | --- | --- | --- |
| CCCCOC(Cc1ccc(OC/C=C(\C)c2ccc(-c3ccccc3)cc2)cc1)C(=O)OCC (racemic) [Example 135, (E)-(S/R)-Ethyl 3-[4-(3-Biphenyl-4-yl-but-2-enyloxy)-phenyl]-2-butoxy-propionate] | 62 to 63.5 °C | – | – | – | – |
| CCO[C@@H](Cc1ccc(OC/C=C(\C)c2ccc(-c3ccc(Br)cc3)cc2)cc1)C(=O)O [Example 4, (E)-(S)-3-{4-[3-(4′-Bromo-biphenyl-4-yl)-but-2-enyloxy]-phenyl}-2-ethoxy-propionic acid] | – | 156% | 0.72 µM | 212% | 3.1 µM |
| CCOC(=O)[C@H](Cc1ccc(OC/C=C(\C)c2ccc3c(c2)Cc2ccccc2-3)cc1)OCC [Example 9, (E)-(S)-2-Ethoxy-3-{4-[3-(9H-fluoren-2-yl)-but-2-enyloxy]-phenyl}-propionic acid ethyl ester] | – | 125% | 0.35 µM | 234% | 0.038 µM |
| CCOC(=O)[C@H](Cc1ccc(OC/C=C/c2cc3ccccc3o2)cc1)OCC [Example 27] | – | 99% | 0.11 µM | 185% | 0.1 µM |

Results, then the compound that gave them:

| melting point | In vitro activation PPAR γ % max [1] | EC50 [1] | In vitro activation PPAR α % max [2] | EC50 [2] | SMILES |
| --- | --- | --- | --- | --- | --- |
| 79 to 81 °C | – | – | – | – | CCOC(=O)C(Cc1ccc(OC/C=C(\C)c2ccc(-c3ccccc3)cc2)cc1)OC(C)C (racemic) [Example 133, (E)-(S/R)-Ethyl 3-[4-(3-Biphenyl-4-yl-but-2-enyloxy)-phenyl]-2-isopropoxy-propionate] |
| 125 to 127.5 °C | 155% | 0.89 µM | 122% | 2.9 µM | C/C(=C\COc1ccc(CC(OC(C)C)C(=O)O)cc1)c1ccc(-c2ccccc2)cc1 (racemic) [Example 134, (E)-(S/R)-3-[4-(3-Biphenyl-4-yl-but-2-enyloxy)-phenyl]-2-isopropoxy-propionic acid] |
| 117 to 119 °C | – | – | – | – | CCCCCCOC(Cc1ccc(OC/C=C(\C)c2ccc(-c3ccccc3)cc2)cc1)C(=O)O (racemic) [Example 138, (E)-(S/R)-3-[4-(3-Biphenyl-4-yl-but-2-enyloxy)-phenyl]-2-hexyloxy-propionic acid] |
| 115 to 117 °C | – | – | – | – | C/C(=C\COc1ccc(CC(OCCCc2ccccc2)C(=O)O)cc1)c1ccc(-c2ccccc2)cc1 (racemic) [Example 140, (E)-(S/R)-3-[4-(3-Biphenyl-4-yl-but-2-enyloxy)-phenyl]-2-(3-phenyl-propoxy)-propionic acid] |
| – | 110% | 0.7 µM | 178% | 0.38 µM | CCO[C@@H](Cc1ccc(OC/C=C(\C)c2ccc(-c3cc(Cl)ccc3OC)cc2)cc1)C(=O)O [Example 57, (E)-(S)-3-{4-[3-(5′-Chloro-2′-methoxy-biphenyl-4-yl)-but-2-enyloxy]-phenyl}-2-ethoxy-propionic acid] |
| 70 to 73 °C | – | – | – | – | CCOC(=O)[C@H](Cc1ccc(OC/C=C(\C)c2ccc(-c3ccc(C(C)C)cc3)cc2)cc1)OCC [Example 103, (E)-(S)-Ethyl 2-Ethoxy-3-{4-[3-(4′-isopropyl-biphenyl-4-yl)-but-2-enyloxy]-phenyl}-propionate] |
| – | 83% | 0.3 µM | 102% | 0.35 µM | CCO[C@@H](Cc1ccc(OC/C=C(\C)c2ccc(-c3cc(Br)cc(Br)c3)cc2)cc1)C(=O)O [Example 124, (E)-(S)-3-{4-[3-(3′,5′-Dibromo-biphenyl-4-yl)-but-2-enyloxy]-phenyl}-2-ethoxy-propionic acid] |

— patent US6867218B2, “Compounds, their preparation and use” (Novo Nordisk A/S, priority 2000, dated 2005)
